± gives the expanded uncertainty stated by the source.
Experiments:
[1] = xn = mol fraction of the nth substance listed; conditions: 298.15 K, 101.3 kPa, Liquid
[2] = heat capacity at constant pressure per volume; xn = mol fraction of the nth substance listed; conditions: 298.15 K, 101.3 kPa, Liquid, Flow calorimetry
[3] = 298.15 K; 101.33 kPa; Liquid
[4] = molar heat capacity at constant pressure; conditions: 298.15 K; 101.33 kPa; Liquid; Flow calorimetry

CC(C)(C)CO [2,2-dimethyl-1-propanol] + O
mass density ([1]; x1 = 0.001702): 995.77 ± 0.18 kg/m3 | mass density ([1]; x1 = 0.002268): 995.36 ± 0.18 kg/m3 | mass density ([1]; x1 = 0.002665): 995.08 ± 0.18 kg/m3 | mass density ([1]; x1 = 0.003113): 994.74 ± 0.18 kg/m3 | mass density ([1]; x1 = 0.003563): 994.42 ± 0.18 kg/m3 | mass density ([1]; x1 = 0.004331): 993.87 ± 0.18 kg/m3 | mass density ([1]; x1 = 0.004832): 993.52 ± 0.18 kg/m3 | heat capacity ([2]; x1 = 0.001702): 4176200 ± 42000 J/K/m3 | heat capacity ([2]; x1 = 0.002268): 4178900 ± 42000 J/K/m3 | heat capacity ([2]; x1 = 0.002665): 4181000 ± 42000 J/K/m3 | heat capacity ([2]; x1 = 0.003113): 4183100 ± 42000 J/K/m3 | heat capacity ([2]; x1 = 0.003563): 4185300 ± 42000 J/K/m3 | heat capacity ([2]; x1 = 0.004331): 4189100 ± 42000 J/K/m3 | heat capacity ([2]; x1 = 0.004832): 4191800 ± 42000 J/K/m3

CCC(C)CO (stereo not given) [2-methyl-1-butanol]
mass density [3]: 814.54 ± 0.7 kg/m3 | molar heat capacity at constant pressure [4]: 215 ± 2.1 J/K/mol

CCC(C)CO (stereo not given) [2-methyl-1-butanol] + O
mass density ([1]; x1 = 0.000842): 996.43 ± 0.18 kg/m3 | mass density ([1]; x1 = 0.000975): 996.33 ± 0.18 kg/m3 | mass density ([1]; x1 = 0.001072): 996.28 ± 0.18 kg/m3 | mass density ([1]; x1 = 0.001376): 996.04 ± 0.18 kg/m3 | mass density ([1]; x1 = 0.001398): 996.04 ± 0.18 kg/m3 | mass density ([1]; x1 = 0.00154): 995.95 ± 0.18 kg/m3 | mass density ([1]; x1 = 0.002056): 995.56 ± 0.18 kg/m3 | mass density ([1]; x1 = 0.002325): 995.4 ± 0.18 kg/m3 | mass density ([1]; x1 = 0.002361): 995.38 ± 0.18 kg/m3 | mass density ([1]; x1 = 0.002467): 995.28 ± 0.18 kg/m3 | mass density ([1]; x1 = 0.002771): 995.09 ± 0.18 kg/m3 | mass density ([1]; x1 = 0.002868): 995.02 ± 0.18 kg/m3 | mass density ([1]; x1 = 0.002988): 994.91 ± 0.18 kg/m3 | mass density ([1]; x1 = 0.003068): 994.84 ± 0.18 kg/m3 | mass density ([1]; x1 = 0.003107): 994.81 ± 0.18 kg/m3 | mass density ([1]; x1 = 0.003446): 994.6 ± 0.18 kg/m3 | heat capacity ([2]; x1 = 0.000842): 4172700 ± 42000 J/K/m3 | heat capacity ([2]; x1 = 0.000975): 4173400 ± 42000 J/K/m3 | heat capacity ([2]; x1 = 0.001072): 4174000 ± 42000 J/K/m3 | heat capacity ([2]; x1 = 0.001376): 4175300 ± 42000 J/K/m3 | heat capacity ([2]; x1 = 0.001398): 4175600 ± 42000 J/K/m3 | heat capacity ([2]; x1 = 0.00154): 4176300 ± 42000 J/K/m3 | heat capacity ([2]; x1 = 0.002056): 4179200 ± 42000 J/K/m3 | heat capacity ([2]; x1 = 0.002325): 4180700 ± 42000 J/K/m3 | heat capacity ([2]; x1 = 0.002361): 4180800 ± 42000 J/K/m3 | heat capacity ([2]; x1 = 0.002467): 4181400 ± 42000 J/K/m3 | heat capacity ([2]; x1 = 0.002771): 4182700 ± 42000 J/K/m3 | heat capacity ([2]; x1 = 0.002868): 4183400 ± 42000 J/K/m3 | heat capacity ([2]; x1 = 0.002988): 4184000 ± 42000 J/K/m3 | heat capacity ([2]; x1 = 0.003068): 4184200 ± 42000 J/K/m3 | heat capacity ([2]; x1 = 0.003107): 4184500 ± 42000 J/K/m3 | heat capacity ([2]; x1 = 0.003446): 4186500 ± 42000 J/K/m3

CC(C)CO [2-methyl-1-propanol]
mass density [3]: 797.63 ± 0.69 kg/m3 | molar heat capacity at constant pressure [4]: 181.9 ± 2.1 J/K/mol

CC(C)CO [2-methyl-1-propanol] + O
mass density ([1]; x1 = 0.001575): 995.99 ± 0.18 kg/m3 | mass density ([1]; x1 = 0.00181): 995.84 ± 0.18 kg/m3 | mass density ([1]; x1 = 0.003631): 994.66 ± 0.18 kg/m3 | mass density ([1]; x1 = 0.006044): 993.15 ± 0.18 kg/m3 | mass density ([1]; x1 = 0.009083): 991.35 ± 0.19 kg/m3 | mass density ([1]; x1 = 0.01143): 989.99 ± 0.19 kg/m3 | mass density ([1]; x1 = 0.01647): 987.23 ± 0.19 kg/m3 | heat capacity ([2]; x1 = 0.001575): 4175200 ± 42000 J/K/m3 | heat capacity ([2]; x1 = 0.00181): 4176000 ± 42000 J/K/m3 | heat capacity ([2]; x1 = 0.003631): 4184200 ± 42000 J/K/m3 | heat capacity ([2]; x1 = 0.006044): 4195700 ± 42000 J/K/m3 | heat capacity ([2]; x1 = 0.009083): 4209900 ± 42000 J/K/m3 | heat capacity ([2]; x1 = 0.01143): 4220800 ± 43000 J/K/m3 | heat capacity ([2]; x1 = 0.01647): 4247000 ± 43000 J/K/m3

CCC(C)(C)O [2-methylbutan-2-ol]
mass density [3]: 804.01 ± 0.99 kg/m3 | molar heat capacity at constant pressure [4]: 251.1 ± 2.5 J/K/mol

CCC(C)(C)O [2-methylbutan-2-ol] + O
mass density ([1]; x1 = 0.00166): 995.9 ± 0.18 kg/m3 | mass density ([1]; x1 = 0.001774): 995.84 ± 0.18 kg/m3 | mass density ([1]; x1 = 0.002795): 995.15 ± 0.18 kg/m3 | mass density ([1]; x1 = 0.005273): 993.56 ± 0.18 kg/m3 | mass density ([1]; x1 = 0.006999): 992.51 ± 0.18 kg/m3 | mass density ([1]; x1 = 0.009307): 991.15 ± 0.19 kg/m3 | mass density ([1]; x1 = 0.01213): 989.63 ± 0.19 kg/m3 | mass density ([1]; x1 = 0.01355): 988.89 ± 0.19 kg/m3 | heat capacity ([2]; x1 = 0.00166): 4180000 ± 42000 J/K/m3 | heat capacity ([2]; x1 = 0.001774): 4181000 ± 42000 J/K/m3 | heat capacity ([2]; x1 = 0.002795): 4188600 ± 42000 J/K/m3 | heat capacity ([2]; x1 = 0.005273): 4207000 ± 42000 J/K/m3 | heat capacity ([2]; x1 = 0.006999): 4220500 ± 43000 J/K/m3 | heat capacity ([2]; x1 = 0.009307): 4239300 ± 43000 J/K/m3 | heat capacity ([2]; x1 = 0.01213): 4263400 ± 43000 J/K/m3 | heat capacity ([2]; x1 = 0.01355): 4275900 ± 43000 J/K/m3

CC(C)(C)O [2-methylpropan-2-ol] + O
mass density ([1]; x1 = 0.000883): 996.41 ± 0.18 kg/m3 | mass density ([1]; x1 = 0.001796): 995.74 ± 0.18 kg/m3 | mass density ([1]; x1 = 0.002923): 994.98 ± 0.18 kg/m3 | mass density ([1]; x1 = 0.004051): 994.22 ± 0.18 kg/m3 | mass density ([1]; x1 = 0.006409): 992.64 ± 0.18 kg/m3 | mass density ([1]; x1 = 0.00867): 991.22 ± 0.19 kg/m3 | mass density ([1]; x1 = 0.01153): 989.43 ± 0.19 kg/m3 | mass density ([1]; x1 = 0.01716): 986.35 ± 0.2 kg/m3 | heat capacity ([2]; x1 = 0.000883): 4173400 ± 42000 J/K/m3 | heat capacity ([2]; x1 = 0.001796): 4178600 ± 42000 J/K/m3 | heat capacity ([2]; x1 = 0.002923): 4185200 ± 42000 J/K/m3 | heat capacity ([2]; x1 = 0.004051): 4192000 ± 42000 J/K/m3 | heat capacity ([2]; x1 = 0.006409): 4206500 ± 42000 J/K/m3 | heat capacity ([2]; x1 = 0.00867): 4220900 ± 43000 J/K/m3 | heat capacity ([2]; x1 = 0.01153): 4239100 ± 43000 J/K/m3 | heat capacity ([2]; x1 = 0.01716): 4276400 ± 43000 J/K/m3

CC(C)C(C)O (stereo not given) [3-methyl-2-butanol]
mass density [3]: 812.31 ± 0.73 kg/m3 | molar heat capacity at constant pressure [4]: 249.5 ± 2.5 J/K/mol

CC(C)C(C)O (stereo not given) [3-methyl-2-butanol] + O
mass density ([1]; x1 = 0.000786): 996.49 ± 0.18 kg/m3 | mass density ([1]; x1 = 0.001489): 996.01 ± 0.18 kg/m3 | mass density ([1]; x1 = 0.001981): 995.68 ± 0.18 kg/m3 | mass density ([1]; x1 = 0.004452): 994.09 ± 0.18 kg/m3 | mass density ([1]; x1 = 0.005029): 993.72 ± 0.18 kg/m3 | mass density ([1]; x1 = 0.006358): 992.91 ± 0.18 kg/m3 | mass density ([1]; x1 = 0.007481): 992.25 ± 0.18 kg/m3 | mass density ([1]; x1 = 0.008252): 991.83 ± 0.18 kg/m3 | heat capacity ([2]; x1 = 0.000786): 4172900 ± 42000 J/K/m3 | heat capacity ([2]; x1 = 0.001489): 4177000 ± 42000 J/K/m3 | heat capacity ([2]; x1 = 0.001981): 4180000 ± 42000 J/K/m3 | heat capacity ([2]; x1 = 0.004452): 4194900 ± 42000 J/K/m3 | heat capacity ([2]; x1 = 0.005029): 4198500 ± 42000 J/K/m3 | heat capacity ([2]; x1 = 0.006358): 4206900 ± 42000 J/K/m3 | heat capacity ([2]; x1 = 0.007481): 4213800 ± 43000 J/K/m3 | heat capacity ([2]; x1 = 0.008252): 4218900 ± 43000 J/K/m3

CC(C)CCO [3-methylbutan-1-ol]
mass density [3]: 804.18 ± 0.7 kg/m3 | molar heat capacity at constant pressure [4]: 209.3 ± 2.5 J/K/mol

CC(C)CCO [3-methylbutan-1-ol] + O
mass density ([1]; x1 = 0.000488): 996.67 ± 0.18 kg/m3 | mass density ([1]; x1 = 0.000691): 996.51 ± 0.18 kg/m3 | mass density ([1]; x1 = 0.001002): 996.29 ± 0.18 kg/m3 | mass density ([1]; x1 = 0.001048): 996.22 ± 0.18 kg/m3 | mass density ([1]; x1 = 0.00119): 996.13 ± 0.18 kg/m3 | mass density ([1]; x1 = 0.001204): 996.13 ± 0.18 kg/m3 | mass density ([1]; x1 = 0.001362): 995.99 ± 0.18 kg/m3 | mass density ([1]; x1 = 0.001742): 995.68 ± 0.18 kg/m3 | mass density ([1]; x1 = 0.002039): 995.47 ± 0.18 kg/m3 | mass density ([1]; x1 = 0.002063): 995.45 ± 0.18 kg/m3 | mass density ([1]; x1 = 0.002225): 995.36 ± 0.18 kg/m3 | heat capacity ([2]; x1 = 0.000488): 4170700 ± 42000 J/K/m3 | heat capacity ([2]; x1 = 0.000691): 4171700 ± 42000 J/K/m3 | heat capacity ([2]; x1 = 0.001002): 4173400 ± 42000 J/K/m3 | heat capacity ([2]; x1 = 0.001048): 4173600 ± 42000 J/K/m3 | heat capacity ([2]; x1 = 0.00119): 4174300 ± 42000 J/K/m3 | heat capacity ([2]; x1 = 0.001204): 4174400 ± 42000 J/K/m3 | heat capacity ([2]; x1 = 0.001362): 4175200 ± 42000 J/K/m3 | heat capacity ([2]; x1 = 0.001742): 4177100 ± 42000 J/K/m3 | heat capacity ([2]; x1 = 0.002039): 4178600 ± 42000 J/K/m3 | heat capacity ([2]; x1 = 0.002063): 4178800 ± 42000 J/K/m3 | heat capacity ([2]; x1 = 0.002225): 4179800 ± 42000 J/K/m3

From the NIST ThermoML archive (doi:10.1021/je049738c)
